# Where a name gives a salt, the structure may show the parent alone.
# Assay: in vitro
# Settings: human, hek293t cells
row,Compound,"viability at 48 h, 25 µM [%]"
1,"CC1CCCN(C(=O)C(NC(=O)C(C)Cl)c2cnn(C)c2)C1 (stereo not drawn) [7-G12, 2-chloro-N-[1-(1-methyl-1H-pyrazol-4-yl)-2-(3-methylpiperidin-1-yl)-2-oxoethyl]propanamide]",81.1
2,"CC(Cl)C(=O)NC1CCCc2c1cnn2Cc1ccccc1 (stereo not drawn) [7-G13, N-(1-benzyl-4,5,6,7-tetrahydro-1H-indazol-4-yl)-2-chloropropanamide]",87.2
3,"CC(Cl)C(=O)N(c1ccccc1)C1CCOC1 (stereo not drawn) [7-G14, 2-chloro-N-(oxolan-3-yl)-N-phenylpropanamide]",64.4
4,"CC(Cl)C(=O)NCC(c1ccccc1)c1nnc[nH]1 (stereo not drawn) [7-G15, 2-chloro-N-[2-phenyl-2-(4H-1,2,4-triazol-3-yl)ethyl]propanamide]",114
5,"CC(Cl)C(=O)NCC(NS(=O)(=O)N(C)C)C1CCCC1 (stereo not drawn) [7-G16, 2-chloro-N-{2-cyclopentyl-2-[(dimethylsulfamoyl)amino]ethyl}propanamide]",91.3
6,"CC(Cl)C(=O)NCCc1nnnn1-c1ccccc1 (stereo not drawn) [7-G17, 2-chloro-N-[2-(1-phenyl-1H-1,2,3,4-tetrazol-5-yl)ethyl]propanamide]",92.2
7,"CC(Cl)C(=O)N1C2CCC1CC(O)(Cc1ccc(F)cc1F)C2 (stereo not drawn) [7-G18, 2-chloro-1-{3-[(2,4-difluorophenyl)methyl]-3-hydroxy-8-azabicyclo[3.2.1]octan-8-yl}propan-1-one]",60
8,"CC(Cl)C(=O)NCc1ccc(C(=O)Nc2ccc(F)cc2)cc1 (stereo not drawn) [7-G19, 4-[(2-chloropropanamido)methyl]-N-(4-fluorophenyl)benzamide]",76.3
9,"Cc1ccccc1N(CC(=O)N1CCCCC1)C(=O)C(C)Cl (stereo not drawn) [7-G20, 2-chloro-N-(2-methylphenyl)-N-[2-oxo-2-(piperidin-1-yl)ethyl]propanamide]",70.7
10,"CC(Cl)C(=O)NCCn1cccc1 (stereo not drawn) [7-G21, 2-chloro-N-[2-(1H-pyrrol-1-yl)ethyl]propanamide]",87.8
11,"CC(Cl)C(=O)N1CCc2c(nnn2C)C1 (stereo not drawn) [7-G22, 2-chloro-1-{1-methyl-1H,4H,5H,6H,7H-[1,2,3]triazolo[4,5-c]pyridin-5-yl}propan-1-one]",80.5
12,"O=C(CCl)NCC1CN(Cc2ccccc2)CC12CCC2 (stereo not drawn) [7-H03, N-({6-benzyl-6-azaspiro[3.4]octan-8-yl}methyl)-2-chloroacetamide hydrochloride]",0.629
13,"O=C(CCl)NC1CCN(Cc2cscn2)CC1 [7-H04, 2-chloro-N-{1-[(1,3-thiazol-4-yl)methyl]piperidin-4-yl}acetamide hydrochloride]",0.789
14,"CC(Cl)C(=O)NC1CCc2cnn(C(C)C)c2C1 (stereo not drawn) [7-H05, 2-chloro-N-[1-(propan-2-yl)-4,5,6,7-tetrahydro-1H-indazol-6-yl]propanamide]",107
15,"O=C(CCl)NC1CCS(=O)(=O)c2ccc(F)cc21 (stereo not drawn) [7-H06, 2-chloro-N-(6-fluoro-1,1-dioxo-3,4-dihydro-2H-1lambda6-benzothiopyran-4-yl)acetamide]",1.04
16,"COc1cc(CC2CN(C(=O)C(C)Cl)C2)cc(OC)c1 (stereo not drawn) [7-H07, 2-chloro-1-{3-[(3,5-dimethoxyphenyl)methyl]azetidin-1-yl}propan-1-one]",97.3
17,"O=C(CCl)NCc1ccnn1C1CCCC1 [7-H08, 2-chloro-N-[(1-cyclopentyl-1H-pyrazol-5-yl)methyl]acetamide]",0.996
18,"Cc1c(C(=O)N2CCN(C(=O)C(C)Cl)CC2)sc2ccccc12 (stereo not drawn) [7-H09, 2-chloro-1-[4-(3-methyl-1-benzothiophene-2-carbonyl)piperazin-1-yl]propan-1-one]",88.8
19,"O=C(CCl)NCc1ccn(Cc2ccccc2)n1 [7-H10, N-[(1-benzyl-1H-pyrazol-3-yl)methyl]-2-chloroacetamide]",0.654
20,"CC(Cl)C(=O)N1CCCC1c1nc(-c2ccccc2)c(C(C)C)o1 (stereo not drawn) [7-H11, 2-chloro-1-{2-[4-phenyl-5-(propan-2-yl)-1,3-oxazol-2-yl]pyrrolidin-1-yl}propan-1-one]",79.2
21,"CC(c1ccc(S(N)(=O)=O)cc1)N(C)C(=O)CCl (stereo not drawn) [7-H12, 2-chloro-N-methyl-N-[1-(4-sulfamoylphenyl)ethyl]acetamide]",0.618
22,"CC(Cl)C(=O)NC(CC1CCCCC1)c1ncccn1 (stereo not drawn) [7-H13, 2-chloro-N-[2-cyclohexyl-1-(pyrimidin-2-yl)ethyl]propanamide]",91.2
23,"Cc1ccc(N2CCCC2CNC(=O)CCl)cc1 (stereo not drawn) [7-H14, 2-chloro-N-{[1-(4-methylphenyl)pyrrolidin-2-yl]methyl}acetamide]",4.76
24,"CC(Cl)C(=O)N(C)CCn1c(=O)oc2ccccc21 (stereo not drawn) [7-H15, 2-chloro-N-methyl-N-[2-(2-oxo-2,3-dihydro-1,3-benzoxazol-3-yl)ethyl]propanamide]",102
25,"O=C(CCl)NCCc1c[nH]c2c(F)c(F)c(F)cc12 [7-H16, 2-chloro-N-[2-(5,6,7-trifluoro-1H-indol-3-yl)ethyl]acetamide]",1.21
26,"CC(Cl)C(=O)N1CCC(n2nnc3c2CCCC3)CC1 (stereo not drawn) [7-H17, 2-chloro-1-[4-(4,5,6,7-tetrahydro-1H-1,2,3-benzotriazol-1-yl)piperidin-1-yl]propan-1-one]",90

row,Compound,"viability at 48 h, 25 µM [%]"
1,"COc1cc(CN(C(=O)CCl)C2CC2)ccc1O [7-H18, 2-chloro-N-cyclopropyl-N-[(4-hydroxy-3-methoxyphenyl)methyl]acetamide]",0.647
2,"CC(Cl)C(=O)NCCC1(CO)CC1 (stereo not drawn) [7-H19, 2-chloro-N-{2-[1-(hydroxymethyl)cyclopropyl]ethyl}propanamide]",90.1
3,"CCN(Cc1ccc(C(F)(F)F)cc1)C(=O)CCl [7-H20, 2-chloro-N-ethyl-N-{[4-(trifluoromethyl)phenyl]methyl}acetamide]",0.708
4,"Cc1cc(CC(C)NC(=O)C(C)Cl)n(-c2ccccc2)n1 (stereo not drawn) [7-H21, 2-chloro-N-[1-(3-methyl-1-phenyl-1H-pyrazol-5-yl)propan-2-yl]propanamide]",80.1
5,"COc1cc(C(C)NC(=O)CCl)sn1 (stereo not drawn) [7-H22, 2-chloro-N-[1-(3-methoxy-1,2-thiazol-5-yl)ethyl]acetamide]",0.822
6,"CC(Cl)C(=O)N1CC(OCc2cccc3ccccc23)C1 (stereo not drawn) [7-I03, 2-chloro-1-{3-[(naphthalen-1-yl)methoxy]azetidin-1-yl}propan-1-one]",96.3
7,"CC(Cl)C(=O)N1CC(Cc2cccs2)C1 (stereo not drawn) [7-I04, 2-chloro-1-{3-[(thiophen-2-yl)methyl]azetidin-1-yl}propan-1-one]",88.8
8,"CC(Cl)C(=O)NCC1=CCCOC1 (stereo not drawn) [7-I05, 2-chloro-N-[(5,6-dihydro-2H-pyran-3-yl)methyl]propanamide]",89.9
9,"COCc1noc(CN2CCN(C(=O)C(C)Cl)CC2)n1 (stereo not drawn) [7-I06, 2-chloro-1-(4-{[3-(methoxymethyl)-1,2,4-oxadiazol-5-yl]methyl}piperazin-1-yl)propan-1-one]",88.7
10,"CCOC(=O)c1c2c(nn1C)CCN(C(=O)C(C)Cl)C2 (stereo not drawn) [7-I07, ethyl 5-(2-chloropropanoyl)-2-methyl-2H,4H,5H,6H,7H-pyrazolo[4,3-c]pyridine-3-carboxylate]",92.6
11,"CC(Cl)C(=O)N1CCN(C)C(c2nc(C3CC3)no2)C1 (stereo not drawn) [7-I08, 2-chloro-1-[3-(3-cyclopropyl-1,2,4-oxadiazol-5-yl)-4-methylpiperazin-1-yl]propan-1-one]",84.4
12,"CC(Cl)C(=O)N1CCCC1c1nc(-c2ccccc2)n[nH]1 (stereo not drawn) [7-I09, 2-chloro-1-[2-(3-phenyl-1H-1,2,4-triazol-5-yl)pyrrolidin-1-yl]propan-1-one]",86.8
13,"Cc1ccnc(-c2n[nH]c(C(C)NC(=O)C(C)Cl)n2)c1 (stereo not drawn) [7-I10, 2-chloro-N-{1-[3-(4-methylpyridin-2-yl)-1H-1,2,4-triazol-5-yl]ethyl}propanamide]",71.1
14,"COC1CCN(c2ccc(F)cc2CN(C)C(=O)C(C)Cl)CC1 (stereo not drawn) [7-I11, 2-chloro-N-{[5-fluoro-2-(4-methoxypiperidin-1-yl)phenyl]methyl}-N-methylpropanamide]",94.9
15,"CC(Cl)C(=O)N1CCN(c2nnnn2-c2ccccc2)CC1 (stereo not drawn) [7-I12, 2-chloro-1-[4-(1-phenyl-1H-1,2,3,4-tetrazol-5-yl)piperazin-1-yl]propan-1-one]",74.2
16,"CC(Cl)C(=O)NCc1ccon1 (stereo not drawn) [7-I13, 2-chloro-N-[(1,2-oxazol-3-yl)methyl]propanamide]",94.7
17,"CC(Cl)C(=O)NCc1noc2ccccc12 (stereo not drawn) [7-I14, N-[(1,2-benzoxazol-3-yl)methyl]-2-chloropropanamide]",77.8
18,"CC(Cl)C(=O)NC1CCN(S(C)(=O)=O)C1 (stereo not drawn) [7-I15, 2-chloro-N-(1-methanesulfonylpyrrolidin-3-yl)propanamide]",94.9
19,"CC(=O)N1CCC(NC(=O)C(C)Cl)c2ccc(F)cc2C1 (stereo not drawn) [7-I16, N-(2-acetyl-8-fluoro-2,3,4,5-tetrahydro-1H-2-benzazepin-5-yl)-2-chloropropanamide]",92.3
20,"CC(Cl)C(=O)NCc1ccn(CC(F)F)n1 (stereo not drawn) [7-I17, 2-chloro-N-{[1-(2,2-difluoroethyl)-1H-pyrazol-3-yl]methyl}propanamide]",88.7
21,"CC(Cl)C(=O)N1CCC(Oc2cnc3ccccc3n2)CC1 (stereo not drawn) [7-I18, 2-chloro-1-[4-(quinoxalin-2-yloxy)piperidin-1-yl]propan-1-one]",68.7
22,"CC(Cl)C(=O)N1CCc2ncccc2C1 (stereo not drawn) [7-I19, 2-chloro-1-(5,6,7,8-tetrahydro-1,6-naphthyridin-6-yl)propan-1-one]",98.1
23,"CC(Cl)C(=O)Nc1ccc(C(=O)N(C)C2CCCN(C)C2)cc1 (stereo not drawn) [7-I20, 4-(2-chloropropanamido)-N-methyl-N-(1-methylpiperidin-3-yl)benzamide]",76.4
24,"CC(Cl)C(=O)NCCc1ccnn1C (stereo not drawn) [7-I21, 2-chloro-N-[2-(1-methyl-1H-pyrazol-5-yl)ethyl]propanamide]",92.3
25,"CC(Cl)C(=O)N1CCN(Cc2ccnn2C)CC1 (stereo not drawn) [7-I22, 2-chloro-1-{4-[(1-methyl-1H-pyrazol-5-yl)methyl]piperazin-1-yl}propan-1-one]",99.9

# — PMC11995724, “Antibiotic target discovery by integrated phenotypic and activity-based profiling of electrophilic fragments” (Cell chemical biology, 2025)
